The subject of this experiment is BDF1 mice, P388 leukemia ip, median survival T/C. Nature of the experiment: NCI In Vivo Anticancer Drug Screen. Data for tumor model P388 Leukemia (intraperitoneal) in B6D2F1 (BDF1) mice. As to conditions: endpoint: median survival time, higher = longer survival. A digest of the protocol:
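Steps: implant the tumour, treat one group with compound and another with vehicle, record survival, then divide treated by control.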

Where [1] appears, read: dose: 50.0 mg/kg/injection, schedule: Q01DX009 (ip), vehicle: saline with Tween-80.
Where [2] appears, read: dose: 100.0 mg/kg/injection, schedule: Q01DX009 (ip), vehicle: saline with Tween-80.
The mark [3] stands for this setting: dose: 200.0 mg/kg/injection, schedule: Q01DX009 (ip), vehicle: saline with Tween-80.
Setting [4] is: dose: 12.5 mg/kg/injection, schedule: Q01DX009 (ip), vehicle: saline with Tween-80.
Where [5] appears, read: dose: 25.0 mg/kg/injection, schedule: Q01DX009 (ip), vehicle: saline with Tween-80.

Values joined by “and” are separate entries in the source; they are usually repeats but may differ in a detail not shown here. Equal values may be shown once. Inconclusive results and toxic doses are left out.

Take `CCOC(=O)C(C)NC(=O)N(C)C12CC3CC(CC(C3)C1)C2` (stereo not given): the T/C (dose: 100.0 mg/kg/injection, schedule: Q01DX009 (ip), vehicle: Klucel (hydroxypropylcellulose) (HPC)) was 113 % of control; the T/C (dose: 200.0 mg/kg/injection, schedule: Q01DX009 (ip), vehicle: Klucel (hydroxypropylcellulose) (HPC)) is 117 % of control; the T/C (dose: 400.0 mg/kg/injection, schedule: Q01DX009 (ip), vehicle: Klucel (hydroxypropylcellulose) (HPC)) is 119 % of control.
Take `NC(=O)NC(c1ccccc1)C(NC(N)=O)c1ccccc1` (stereo not given): the T/C under setting [1] was 110 % of control, the T/C under setting [2] was 104 % of control and the T/C under setting [3] is 91 % of control.
Regarding `O=[N+]([O-])c1ccccc1C(c1ccc2ccccc2c1O)N1CCOCC1` (stereo not given), the T/C (dose: 33.0 mg/kg/injection, schedule: Q01DX001 (ip), vehicle: saline with Tween-80) is 100 % of control; the T/C (dose: 50.0 mg/kg/injection, schedule: Q01DX001 (ip), vehicle: saline sonified) was 163 % of control; the T/C (dose: 50.0 mg/kg/injection, schedule: Q01DX001 (ip), vehicle: saline with Tween-80) was 100 % of control; the T/C (dose: 75.0 mg/kg/injection, schedule: Q01DX001 (ip), vehicle: saline with Tween-80) was 100 % of control; the T/C (dose: 100.0 mg/kg/injection, schedule: Q01DX001 (ip), vehicle: saline sonified) was 109 % of control; the T/C (dose: 200.0 mg/kg/injection, schedule: Q01DX001 (ip), vehicle: saline sonified) was 95 % of control.
As to `COc1cc2c(cc1OC)-c1cc3cc(OC)c(OC)cc3c(CCC(=O)O)[n+]1CC2`, the T/C was 101 % of control (dose: 75.0 mg/kg/injection, schedule: Q01DX009 (ip), vehicle: Klucel (hydroxypropylcellulose) (HPC)) and 101 % of control (dose: 150.0 mg/kg/injection, schedule: Q01DX009 (ip), vehicle: Klucel (hydroxypropylcellulose) (HPC)).
Consider `COc1cccc(CCNC(=O)CC#N)c1`, for which the T/C is 100 % of control under setting [2]; 110 % of control (dose: 100.0 mg/kg/injection, schedule: Q04DX003 (ip), vehicle: saline with Tween-80); 110 % of control under setting [3]; 100 % of control (dose: 200.0 mg/kg/injection, schedule: Q04DX003 (ip), vehicle: saline with Tween-80); 100 % of control (dose: 400.0 mg/kg/injection, schedule: Q01DX009 (ip), vehicle: saline with Tween-80); 100 % of control (dose: 400.0 mg/kg/injection, schedule: Q04DX003 (ip), vehicle: saline with Tween-80).
As to `CN(C(=S)SSC(=S)N(C)c1ccccc1)c1ccccc1`, the T/C is, setting by setting: under setting [4], 98 % of control; under setting [5], 99 % of control; under setting [1], 100 % of control; under setting [2], 92 % of control; (dose: 200.0 mg/kg/injection, schedule: Q01DX001 (ip), vehicle: Klucel (hydroxypropylcellulose) (HPC)) 91 % of control; (dose: 400.0 mg/kg/injection, schedule: Q01DX001 (ip), vehicle: Klucel (hydroxypropylcellulose) (HPC)) 95 % of control.
`CCCCOc1ccc(C(=O)NN)cc1`: the T/C is 118 % of control (dose: 6.25 mg/kg/injection, schedule: Q01DX009 (ip), vehicle: saline with Tween-80); 100 % of control (dose: 6.25 mg/kg/injection, schedule: Q04DX003 (ip), vehicle: saline with Tween-80); 108 % of control under setting [4]; 91 % of control and 92 % of control (dose: 12.5 mg/kg/injection, schedule: Q04DX003 (ip), vehicle: saline with Tween-80); 99 % of control under setting [5]; 90 % of control and 106 % of control (dose: 25.0 mg/kg/injection, schedule: Q04DX003 (ip), vehicle: saline with Tween-80). Moreover, the T/C runs as follows: under setting [1], 115 % of control; (dose: 50.0 mg/kg/injection, schedule: Q04DX003 (ip), vehicle: saline with Tween-80) 97 % of control and 98 % of control; under setting [2], 97 % of control.
